Source: PubChem BioAssay (NCI)
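1) Cells in 96-well plates. 2) Compound, 48 h, 5 concentrations. 3) Linear interpolation between surrounding doses. 4) Unreached endpoint = highest concentration. TGI marks complete inhibition of growth.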

Key:
Test in all cases: NCI tumour cell line growth inhibition, 48 h
786-0 renal = system: 786-0 renal
A498 renal = system: A498 renal
ACHN renal = system: ACHN renal
CAKI-1 renal = system: CAKI-1 renal
CCRF-CEM leukemia = system: CCRF-CEM leukemia
COLO 205 colon = system: COLO 205 colon
EKVX NSCLC = system: EKVX NSCLC
HCC-2998 colon = system: HCC-2998 colon
HCT-116 colon = system: HCT-116 colon
HCT-15 colon = system: HCT-15 colon
HOP-62 NSCLC = system: HOP-62 NSCLC
HOP-92 NSCLC = system: HOP-92 NSCLC
HS 578T breast = system: HS 578T breast
HT29 colon = system: HT29 colon
IGROV1 ovarian = system: IGROV1 ovarian
K-562 leukemia = system: K-562 leukemia
KM12 colon = system: KM12 colon
LOX IMVI melanoma = system: LOX IMVI melanoma
M14 melanoma = system: M14 melanoma
MDA-MB-231 breast = system: MDA-MB-231 breast
MDA-MB-435 = system: MDA-MB-435
MOLT-4 leukemia = system: MOLT-4 leukemia
NCI-H226 lung = system: NCI-H226 lung
NCI-H23 lung = system: NCI-H23 lung
NCI-H460 lung = system: NCI-H460 lung
NCI-H522 lung = system: NCI-H522 lung
NCI/ADR-RES ovarian = system: NCI/ADR-RES ovarian
OVCAR-3 ovarian = system: OVCAR-3 ovarian
OVCAR-4 ovarian = system: OVCAR-4 ovarian
OVCAR-5 ovarian = system: OVCAR-5 ovarian
OVCAR-8 ovarian = system: OVCAR-8 ovarian
PC-3 prostate = system: PC-3 prostate
RPMI-8226 leukemia = system: RPMI-8226 leukemia
SF-268 CNS = system: SF-268 CNS
SF-295 CNS = system: SF-295 CNS
SF-539 CNS = system: SF-539 CNS
SK-MEL-2 melanoma = system: SK-MEL-2 melanoma
SK-MEL-28 melanoma = system: SK-MEL-28 melanoma
SK-MEL-5 melanoma = system: SK-MEL-5 melanoma
SK-OV-3 ovarian = system: SK-OV-3 ovarian
SN12C renal = system: SN12C renal
SNB-19 CNS = system: SNB-19 CNS
SNB-75 CNS = system: SNB-75 CNS
SR leukemia = system: SR leukemia
SW-620 colon = system: SW-620 colon
T-47D breast = system: T-47D breast
TK-10 renal = system: TK-10 renal
U251 CNS = system: U251 CNS
UO-31 renal = system: UO-31 renal

Cc1cc(-c2no[n+]([O-])c2-c2cc(C)sc2S(C)(=O)=O)c(S(C)(=O)=O)s1
TGI (786-0 renal): > 100 µM
TGI (A498 renal): > 100 µM
TGI (ACHN renal): > 100 µM
TGI (CAKI-1 renal): > 100 µM
TGI (CCRF-CEM leukemia): > 100 µM
TGI (COLO 205 colon): > 100 µM
TGI (EKVX NSCLC): > 100 µM
TGI (HCC-2998 colon): > 100 µM
TGI (HCT-116 colon): > 100 µM
TGI (HCT-15 colon): > 100 µM
TGI (HOP-62 NSCLC): > 100 µM
TGI (HOP-92 NSCLC): > 100 µM
TGI (HS 578T breast): > 100 µM
TGI (HT29 colon): > 100 µM
TGI (IGROV1 ovarian): > 100 µM
TGI (K-562 leukemia): > 100 µM
TGI (KM12 colon): > 100 µM
TGI (LOX IMVI melanoma): > 100 µM
TGI (M14 melanoma): > 100 µM
TGI (MDA-MB-231 breast): > 100 µM
TGI (MDA-MB-435): > 100 µM
TGI (MOLT-4 leukemia): > 100 µM
TGI (NCI-H226 lung): > 100 µM
TGI (NCI-H23 lung): > 100 µM
TGI (NCI-H460 lung): > 100 µM
TGI (NCI-H522 lung): > 100 µM
TGI (NCI/ADR-RES ovarian): > 100 µM
TGI (OVCAR-3 ovarian): > 100 µM
TGI (OVCAR-4 ovarian): > 100 µM
TGI (OVCAR-5 ovarian): > 100 µM
TGI (OVCAR-8 ovarian): > 100 µM
TGI (PC-3 prostate): > 100 µM
TGI (RPMI-8226 leukemia): > 100 µM
TGI (SF-268 CNS): > 100 µM
TGI (SF-295 CNS): > 100 µM
TGI (SF-539 CNS): > 100 µM
TGI (SK-MEL-2 melanoma): > 100 µM
TGI (SK-MEL-28 melanoma): > 100 µM
TGI (SK-MEL-5 melanoma): > 100 µM
TGI (SK-OV-3 ovarian): > 100 µM
TGI (SN12C renal): > 100 µM
TGI (SNB-19 CNS): 75.1 µM
TGI (SNB-75 CNS): > 100 µM
TGI (SR leukemia): > 100 µM
TGI (SW-620 colon): > 100 µM
TGI (T-47D breast): > 100 µM
TGI (TK-10 renal): > 100 µM
TGI (U251 CNS): > 100 µM
TGI (UO-31 renal): > 100 µM
